Earlier results in patent US9408814B2, “Modified release dosage form comprising desvenlafaxine or salts thereof” (WOCKHARDT LIMITED, priority 2010, dated 2016).
Like-named read-outs stand apart in the source and are kept apart here.

Legend:
[1] = at pH 7.0
[2] = not given; remark: listed apart in the source

octanol:aqueous system partition coefficient [1] | pKa (dimethylamino group) | pKa (phenolic group) | pH dependence of solubility ([2]; solubility increases at lower pH) | solubility in water ([2]; water) | solubility at gastric pH ([2]; gastric pH) | solubility at intestinal pH ([2]; intestinal pH) | Compound
0.21 | 8.34 | 10.11 | pH dependent | soluble in water | – | – | CN(C)CC(c1ccc(O)cc1)C1(O)CCCCC1 (stereo not shown) [Desvenlafaxine succinate]
– | – | – | – | – | relatively good solubility | poor solubility | CN(C)CC(c1ccc(O)cc1)C1(O)CCCCC1.O=C(O)CCC(=O)O (stereo not shown) [Desvenlafaxine, RS-4-[2-dimethylamino-1-(1-hydroxycyclohexyl)ethyl]phenol]
